These results are taken from publication PMC8001783, “New Lignanamides with Antioxidant and Anti-Inflammatory Activities Screened Out and Identified from Warburgia ugandensis Combining Affinity Ultrafiltration LC-MS with SOD and XOD Enzymes” (Antioxidants, 2021).

Where “and” joins values, the source holds several entries; their conditions need not be identical. Equal entries are not always repeated.

Test [1] is described as follows: DPPH free radical scavenging assay. The note with it: pure compounds; 30 min, 517 nm, n = 3. As for the experimental part:
The DPPH free radical scavenging activities of extracts and pure compounds from stem barks of W. ugandensis were tested according to previous studies with slight modifications. Firstly, 10 µL solutions of the samples, appropriately diluted with MeOH, were homogeneously mixed with 190 µL solution of DPPH (0.1 mM in MeOH) in a 96-well plate. Secondly, the mixtures were gently shaken and put at room temperature for 30 min in the darkness. Finally, the absorbance was recorded at 517 nm with multifunctional microplate reader. Trolox was used as positive control, and MeOH was used as blank control. Each of the samples and controls were tested in triplicate (n = 3). The antioxidant activities of DPPH were expressed as IC50 (concentration of samples caused 50% inhibition) and TEAC values. The TEAC values were calculated from the standard curve of Trolox and expressed as millimoles of Trolox equivalents per gram of sample (mmol TE/g). The inhibition of the DPPH radical was calculated according to the following formula:DPPH scavenging activity (%) = (1 − absorbance of sample/absorbance of blank control) × 100,(1) where DPPH scavenging activities (%) were plotted against the concentration of samples to obtain the IC50.

Test [2] is described as follows: ABTS free radical scavenging assay. The note with it: pure compounds; 30 min, 734 nm, n = 3. Here is the method: The ABTS free radical scavenging activities of extracts and pure compounds from stem barks of W. ugandensis were tested according to previous studies with slight modifications. ABTS^+ solution was prepared by mixing equal volumes of potassium persulfate (4.9 mM in H2O) and ABTS (7.0 mM in H2O) and then incubated for 12 h in the darkness. The prepared ABTS^+ solution was diluted with MeOH to ensure an absorbance value about 0.700 ± 0.005 at 734 nm. Firstly, 10 µL of appropriately diluted solution of samples was added to the 190 µL ABTS^+ solution in 96-well plate. Secondly, the mixtures were gently shaken and put at room temperature for 30 min in the darkness. Finally, the absorbance was recorded at 734 nm with multifunctional microplate reader. Trolox was used as positive control, and MeOH was used as blank control. Samples and controls were tested in triplicate (n = 3). The antioxidant activities of ABTS were expressed as IC50 and TEAC values. The inhibition of the ABTS radicals was calculated according to the following formula:ABTS scavenging activity (%) = (1 − absorbance of sample/absorbance of blank control) × 100,(2) where ABTS scavenging activities (%) were plotted against the concentration of samples to acquire the IC50.

The target of the next test is T1, COX-2 (human) (Homo sapiens, UniProt P35354).
T1 construct: purchased Beyotime Biotechnology (Shanghai, China) S0168
T1 sequence (P35354 18-604): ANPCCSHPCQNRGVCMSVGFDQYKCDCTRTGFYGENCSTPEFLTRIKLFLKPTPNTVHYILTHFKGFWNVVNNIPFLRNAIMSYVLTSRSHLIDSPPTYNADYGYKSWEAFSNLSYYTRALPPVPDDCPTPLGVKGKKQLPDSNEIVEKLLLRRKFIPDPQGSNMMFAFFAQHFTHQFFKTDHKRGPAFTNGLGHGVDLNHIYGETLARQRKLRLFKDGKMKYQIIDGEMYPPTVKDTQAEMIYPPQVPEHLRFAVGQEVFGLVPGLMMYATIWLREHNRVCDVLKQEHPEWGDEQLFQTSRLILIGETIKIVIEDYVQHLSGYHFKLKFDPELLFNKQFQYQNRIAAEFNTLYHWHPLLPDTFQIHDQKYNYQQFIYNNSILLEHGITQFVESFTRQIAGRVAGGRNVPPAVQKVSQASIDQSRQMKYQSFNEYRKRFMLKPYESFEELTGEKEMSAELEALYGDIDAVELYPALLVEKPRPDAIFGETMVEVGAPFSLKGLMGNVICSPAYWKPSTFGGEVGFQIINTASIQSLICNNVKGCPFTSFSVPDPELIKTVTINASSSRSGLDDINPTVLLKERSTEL
In words: In vitro COX-2 inhibitory assay (COX-2 (human) inhibitor screening kit). The following applies: for COX-2 inhibitory activity compared with the positive control indomethacin: in words, Figure 7; for IC50: fluorescence, ex 560 nm / em 590 nm, triplicate. In kind it is biochemical. As for the experimental part:
Firstly, samples were dissolved in DMSO, and prepared into a series of solutions with different concentrations. COX-2 cofactor working solution, COX-2 working solution, COX-2 probe, and COX-2 substrate were prepared according to manufacturer’s instructions, and then diluted 10 times with COX-2 assay buffer, respectively. Secondly, 150 µL Tris-HCl (pH = 7.8), 10 µL COX-2 cofactor working solution, 10 µL COX-2 working solution, and 10 µL sample solution were sequentially added in the 96-well black plates, mixed and incubated at 37 °C for 10 min. The COX-2 working solution of the blank control group was replaced with an equal volume of COX-2 assay buffer, and the sample was replaced with an equal volume of DMSO; the sample of the 100% enzyme activity control group was replaced with an equal volume of DMSO. Thirdly, 10 µL COX-2 probe was added into each well. Finally, 10 µL of COX-2 substrate was quickly added into each well, and incubated at 37 °C in the darkness for 5 min, and followed by the fluorescence measurement. The excitation and emission wavelengths were 560 nm and 590 nm, respectively. […] The experiments were performed in triplicate. The COX-2 inhibitory activity was expressed as IC50. The inhibition of COX-2 was calculated according to the following formula:COX-2 inhibitory activity (%) = (RFU100%Enzyme − RFUSample)/ (RFU100%Enzyme − RFUBlank) × 100,(3) where COX-2 inhibitory activity (%) was plotted against the concentration of samples to acquire the IC50. RFU100%Enzyme, relative fluorescence unit of 100% enzyme control group; RFUSample, relative fluorescence unit of sample; RFUBlank, relative fluorescence unit of blank group.

Test [3] concerns LPS-induced NO production in RAW 264.7 macrophages. The arrangement: method as in doi:10.5012/bkcs.2013.34.10.3105, PMID 29177586, PMID 31888376. The note with it: cited from earlier work.

The term IC50 denotes the concentration that gives 50% inhibition. As for “1-(3,4-dihydroxy-5-methoxyphenyl)-1,2-dihydroxy-7,8-dihydroxy-N-[(3,4-dihydroxyphenyl)-ethyl]-N′-[(4-hydroxyphenyl)-ethyl]-6-methoxynaphthalene-2,3-dicarboxamide [compound 11]”, the results for the IC50 in test [1] and in test [2] were 59.1 ± 4.1 µM and 80 ± 10.3 µM, respectively. Moreover, on COX-2 (human), the “COX-2 inhibitory activity compared with the positive control indomethacin” value is reported as “almost the same inhibitory activities”.
Take `C[C@@H]1O[C@@H](O[C@@H]2[C@@H](O)[C@H](O)[C@@H](CO)O[C@H]2c2cc(-c3cc(=O)c4c(O)cc(O)cc4o3)cc(O)c2O)[C@H](O)[C@H](O)[C@H]1O` [compound 1, 2-[3-[2-O-(6-deoxy-α-L-mannopyranosyl)-β-D-glucopyranosyl]-4,5-dihydroxyphenyl]-5,7-dihydroxy-4H-1-benzopyran-4-one]: the IC50 in test [1] amounted to 25.8 ± 1.4 µM; in test [2], 62.5 ± 4.2 µM. Also, the “COX-2 inhibitory activity compared with the positive control indomethacin” value at COX-2 (human) was “almost the same inhibitory activities”.
With `O=C(/C=C/c1ccc(O)c(O)c1)NCCc1ccc(O)cc1` [compound 7, N-trans-caffeoyltyramine], the IC50 came to 636 ± 290 µM in test [1] and 463 ± 157 µM in test [2]. Moreover, in test [3], the “inhibitory effect against LPS-induced NO production” value was “good inhibitory effects”. Moreover, the “COX-2 inhibitory activity compared with the positive control indomethacin” value at COX-2 (human) is on record as “almost the same inhibitory activities”.
In the case of `COc1cc(C2c3c(cc(OC)c(O)c3O)C=C(C(=O)NCCc3ccc(O)cc3)C2C(=O)NCCc2ccc(O)cc2)cc(O)c1O` (stereo not shown) [compound 13], the IC50 in test [1] was 115 ± 20.8 µM; in test [2] it was 69.8 ± 6.3 µM; at COX-2 (human), 0.713 ± 0.322 µM.
Turning to `COc1cc(C2c3c(cc(O)c(O)c3OC)C=C(C(=O)NCCc3ccc(O)cc3)C2C(=O)NCCc2ccc(O)cc2)cc(O)c1O` (stereo not shown) [compound 14], the IC50 in test [1] was 6.41 µM and 6.4 µM; in test [2], 5.38 µM and 5.4 µM; on COX-2 (human) it was 0.123 ± 0.004 µM.
